Read-outs that look alike come from different tables or passages of the source.
Test system: WBP2 overexpressing cancer cells
Assay: Drug sensitivity of cells overexpressing WT ITCH versus C830A or E855K mutant ITCH to Wnt inhibitors
Format: cell-based
Protocol: This was indeed the case for up to 0.0001 μM and 5 μM for FH535 and C59, respectively, but above these doses, the distinction was lost probably as a result of non-specific cytotoxicity (FIGS. 8 and 9). This implies that ITCH inactivating mutations could be used to predict for response to Wnt inhibitors especially in cancers that are dependent on WBP2.

[1] = WT ITCH vs C830A or E855K mutant ITCH overexpression, FIGS. 8 and 9

Cc1cc([N+](=O)[O-])ccc1NS(=O)(=O)c1cc(Cl)ccc1Cl [FH535]
dose up to which the difference in sensitivity between WT ITCH and mutant ITCH cells held (above it the distinction was lost, probably non-specific cytotoxicity) [1]: up to 0.0001 μM
sensitivity of cells to the Wnt inhibitor when WT ITCH is overexpressed (low WBP2) compared to when C830A or E855K mutant is overexpressed (high WBP2) [1]: less sensitive

Cc1cc(-c2ccc(CC(=O)Nc3ccc(-c4cccnc4)cc3)cc2)ccn1 [C59]
dose up to which the difference in sensitivity between WT ITCH and mutant ITCH cells held (above it the distinction was lost, probably non-specific cytotoxicity): ≤ 5 µM
sensitivity of cells to the Wnt inhibitor when WT ITCH is overexpressed (low WBP2) compared to when C830A or E855K mutant is overexpressed (high WBP2) [1]: less sensitive
